In patent US11591336B2 (Relay Therapeutics, Inc., priority 2017, dated 2023):
Where a name gives a salt, the structure may show the parent alone.

Molecular target: SHP2 (Homo sapiens (Human), UniProt Q06124)
Experiment: SHP2 Allosteric Inhibition Assay (DiFMUP prompt fluorescence)
Type: biochemical
Conditions: 0.25 nM SHP2 activated with 0.5 μM peptide IRS1_pY1172(dPEG8)pY1222; substrate DiFMUP 100 μM; 25° C.

Row | SMILES | IC50 [nM]
1 | c1cncc(COC2CCN(c3cnc4c(N5CCCc6ncccc65)n[nH]c4n3)CC2)c1 [Compound 140] | ≥ 10000
2 | C[C@H]1CCN(c2n[nH]c3nc(N4CCC(C)(CN)CC4)cnc23)c2ccc(C#N)cc21 (single isomer, unassigned) [Compound 116] | < 1000
3 | O=C1NC2(CCN(c3cnc4c(N5CCCc6ncccc65)n[nH]c4n3)CC2)CO1 [Compound 215] | 1000 to 10000
4 | NC1CCCC12CCN(c1cnc3c(N4CCCc5ncccc54)n[nH]c3n1)C2 (stereo not shown) [Compound 203, 2-(3-(3,4-dihydro-1,5-naphthyridin-1(2H)-yl)-1H-pyrazolo[3,4-b]pyrazin-6-yl)-2-azaspiro[4.4]nonan-6-amine] | 1000 to 10000
5 | CC1(CN)CCN(c2cnc3c(N4CCCc5c(-c6ccc(F)cc6)cccc54)n[nH]c3n2)CC1 [Compound 69] | < 1000
6 | c1ccc(OC2CCCN(c3cnc4c(N5CCCc6ncccc65)n[nH]c4n3)C2)cc1 (stereo not shown) [Compound 142] | ≥ 10000
7 | CC1(CN)CCN(c2cnc3c(N4CCCc5c4ccc(C#N)c5C4CC4)n[nH]c3n2)CC1 [Compound 122] | < 1000
8 | CC1Cc2ccccc2N(c2n[nH]c3nc(N4CCC(C)(N)CC4)cnc23)C1 (stereo not shown) [Compound 38] | 1000 to 10000
9 | CC1(CN)CCN(c2cnc3c(N4CCCc5c4ccnc5Cl)n[nH]c3n2)CC1 [Compound 132] | < 1000
10 | CC1(CN)CCN(c2cnc3c(N4CCc5cnccc54)n[nH]c3n2)CC1 [Compound 125] | 1000 to 10000
11 | NC1CCCC12CCN(c1cnc3c(Sc4cccnc4C(F)(F)F)n[nH]c3n1)CC2 (stereo in doubt) [Compound 476, (S)-8-(3-((2-(trifluoromethyl)pyridin-3-yl)thio)-1H-pyrazolo[3,4-b]pyrazin-6-yl)8-azaspiro[4.5]decan-1-amine] | < 1000
12 | CC1(N)CCN(c2cnc3c(N4CCCc5cnccc54)n[nH]c3n2)CC1 [Compound 30] | 1000 to 10000
13 | CC1(N)CCN(c2cnc3c(N4CCCc5c(-c6nc(C(=O)O)cs6)cccc54)n[nH]c3n2)CC1 [Compound 71, 2-(1-(6-(4-amino-4-methylpiperidin-1-yl)-1H-pyrazolo[3,4-b]pyrazin-3-yl)-1,2,3,4-tetrahydroquinolin-5-yl)thiazole-4-carboxylic acid] | < 1000
14 | NC[C@H]1CCN(c2cnc3c(N4CCCc5ncccc54)n[nH]c3n2)[C@H](c2ccccc2)C1 [Compound 167] | 1000 to 10000
15 | CC1(N)CCN(c2cnc3c(Nc4cccnc4Cl)n[nH]c3n2)CC1 [Compound 12, 6-(4-amino-4-methylpiperidin-1-yl)-N-(2-chloropyridin-3-yl)-1H-pyrazolo[3,4-b]pyrazin-3-amine] | 1000 to 10000
16 | CC1(CN)CCN(c2cnc3c(N4CCCc5c4cccc5S(C)(=O)=O)n[nH]c3n2)CC1 [Compound 185] | < 1000
17 | c1ccc(CC2CCCN2c2cnc3c(N4CCCc5ncccc54)n[nH]c3n2)cc1 (stereo not shown) [Compound 144] | ≥ 10000
18 | C[C@@H]1C[C@H](CN)CCN1c1cnc2c(N3CCCc4ncccc43)n[nH]c2n1 (racemic) [Compound 109, ((2R,4R)-1-(3-(3,4-dihydro-1,5-naphthyridin-1(2H)-yl)-1H-pyrazolo[3,4-b]pyrazin-6-yl)-2-methylpiperidin-4-yl)methanamine] | 1000 to 10000
19 | CC1(CN)CCN(c2cnc3c(N4CCCc5c(-c6cccc(Oc7ccccc7)c6)cccc54)n[nH]c3n2)CC1 [Compound 75] | < 1000
20 | CC1(CN)CCN(c2cnc3c(N4CCCc5c(-c6ccc(F)c(F)c6)cccc54)n[nH]c3n2)CC1 [Compound 70] | < 1000
21 | CC1(CN)CCN(c2cnc3c(N4CCCc5c(C6CC6)cccc54)n[nH]c3n2)CC1 [Compound 86] | < 1000
22 | CC1(CO)CCN(c2cnc3c(N4CCCc5ncccc54)n[nH]c3n2)CC1 [Compound 145] | ≥ 10000
23 | CC1CCc2ccccc2N1c1n[nH]c2nc(N3CCC(C)(N)CC3)cnc12 (stereo not shown) [Compound 34] | < 1000
24 | C[C@@H](N)C1(C)CCN(c2cnc3c(N4CCCc5ncccc54)n[nH]c3n2)CC1 (single isomer, unassigned) [Compound 111] | < 1000

Next, values leading:

Row | IC50 [nM] | SMILES
25 | < 1000 | C[C@@H]1OCC2(CCN(c3cnc4c(N5CC[C@H](C)c6cc(-c7ncon7)ccc65)n[nH]c4n3)CC2)[C@@H]1N [Compound 227, (3S,4S)-3-methyl-8-(3-((S)-4-methyl-6-(1,2,4-oxadiazol-3-yl)-3,4-dihydroquinolin-1(2H)-yl)-1H-pyrazolo[3,4-b]pyrazin-6-yl)-2-oxa-8-azaspiro[4.5]decan-4-amine]
26 | < 1000 | C[C@@H]1OCC2(CCN(c3cnc4c(N5CCc6ccc(-c7cnn(C)c7)cc6C5)n[nH]c4n3)CC2)[C@@H]1N [Compound 337]
27 | < 1000 | CC1CCN(c2n[nH]c3nc(N4CCC5(CC4)CO[C@@H](C)[C@H]5N)cnc23)c2ccc(C(N)=O)nc21 (stereo in doubt) [Compound 264, (8S)-5-{6-[(3S,4S)-4-amino-3-methyl-2-oxa-8-azaspiro[4.5]decan-8-yl]-1H-pyrazolo[3,4-b]pyrazin-3-yl}-8-methyl-5,6,7,8-tetrahydro-1,5-naphthyridine-2-carboxamide]
28 | < 1000 | C[C@@H]1OCC2(CCN(c3cnc4c(N5CCCc6nc(-c7cccnn7)ccc65)n[nH]c4n3)CC2)[C@@H]1N [Compound 348]
29 | < 1000 | C[C@@H]1OCC2(CCN(c3cnc4c(N5CCN(C)c6cnccc65)n[nH]c4n3)CC2)[C@@H]1N [Compound 276]
30 | < 1000 | C[C@@H]1OCC2(CCN(c3cnc4c(N5CCN(C)c6ncccc65)n[nH]c4n3)CC2)[C@@H]1N [Compound 301]
31 | < 1000 | CC(=O)N1CCN(c2n[nH]c3nc(N4CCC5(CC4)CO[C@@H](C)[C@H]5N)cnc23)c2ccccc21 [Compound 235]
32 | < 1000 | Cn1cc(-c2ccc3c(n2)CCCN3c2n[nH]c3nc(N4CCC(C)(N)CC4)cnc23)cn1 [Compound 62]
33 | < 1000 | C[C@@H]1OCC2(CCN(c3cnc4c(N5CCCc6nc(C7CCOCC7)ccc65)n[nH]c4n3)CC2)[C@@H]1N [Compound 239]
34 | < 1000 | Cn1cc(-c2cccc3c2CCCN3c2n[nH]c3nc(N4CCC(C)(N)CC4)cnc23)cn1 [Compound 61]
35 | < 1000 | C[C@@H]1OCC2(CCN(c3cnc4c(N5CCCc6nc(-c7cc[nH]n7)ccc65)n[nH]c4n3)CC2)[C@@H]1N [Compound 254, (3S,4S)-8-(3-(6-(1H-pyrazol-3-yl)-3,4-dihydro-1,5-naphthyridin-1(2H)-yl)-1H-pyrazolo[3,4-b]pyrazin-6-yl)-3-methyl-2-oxa-8-azaspiro[4.5]decan-4-amine]
36 | < 1000 | C[C@@H]1OCC2(CCN(c3cnc4c(N5CCCc6c(CCO)cccc65)n[nH]c4n3)CC2)[C@@H]1N [Compound 435]
37 | < 1000 | C[C@@H]1OCC2(CCN(c3cnc4c(N5CCCc6c5cccc6[S@@](C)(=N)=O)n[nH]c4n3)CC2)[C@@H]1N [Compound 421]
38 | < 1000 | C[C@@H]1OCC2(CCN(c3cnc4c(N5CCc6ccncc6C5)n[nH]c4n3)CC2)[C@@H]1N [Compound 272]
39 | < 1000 | CNC(=O)c1nccc2c1CCCN2c1n[nH]c2nc(N3CCC4(CC3)CO[C@@H](C)[C@H]4N)cnc12 [Compound 404, 1-{6-[(3S,4S)-4-amino-3-methyl-2-oxa-8-azaspiro[4.5]decan-8-yl]-1H-pyrazolo[3,4-b]pyrazin-3-yl}-N-methyl-1,2,3,4-tetrahydro-1,6-naphthyridine-5-carboxamide]
40 | < 1000 | C[C@@H]1OCC2(CCN(c3cnc4c(N5CCCc6nc(-c7cnn(CCO)c7)ccc65)n[nH]c4n3)CC2)[C@@H]1N [Compound 351, 2-[4-(5-{6-[(3S,4S)-4-amino-3-methyl-2-oxa-8-azaspiro[4.5]decan-8-yl]-1H-pyrazolo[3,4-b]pyrazin-3-yl}-5,6,7,8-tetrahydro-1,5-naphthyridin-2-yl)-1H-pyrazol-1-yl]ethan-1-ol]
41 | < 1000 | CC(=O)N1CCN(c2n[nH]c3nc(N4CCC5(CC4)CO[C@@H](C)[C@H]5N)cnc23)c2ccc(-c3cnn(C)c3)cc21 [Compound 323]
42 | < 1000 | NC1CCCC12CCN(c1cnc3c(N4CCCc5ncccc54)n[nH]c3n1)CC2 (stereo not shown) [Compound 53, 8-(3-(3,4-dihydro-1,5-naphthyridin-1(2H)-yl)-1H-pyrazolo[3,4-b]pyrazin-6-yl)-8-azaspiro[4.5]decan-1-amine]
43 | < 1000 | CO[C@H]1C[C@@H](N2CCN(c3n[nH]c4nc(N5CCC6(CC5)CO[C@@H](C)[C@H]6N)cnc34)c3ccc(C#N)cc32)C1 [Compound 469]
44 | < 1000 | C[C@@H]1OCC2(CCN(c3cnc4c(N5CCOc6ccccc6C5)n[nH]c4n3)CC2)[C@@H]1N [Compound 269]
45 | < 1000 | CNC(=O)Cc1ccc2c(n1)CCCN2c1n[nH]c2nc(N3CCC4(CC3)CO[C@@H](C)[C@H]4N)cnc12 [Compound 425, 2-(5-{6-[(3S,4S)-4-amino-3-methyl-2-oxa-8-azaspiro[4.5]decan-8-yl]-1H-pyrazolo[3,4-b]pyrazin-3-yl}-5,6,7,8-tetrahydro-1,5-naphthyridin-2-yl)-N-methylacetamide]
46 | < 1000 | Cn1cc(-c2ccc3c(n2)CCCN3c2n[nH]c3nc(N4CCC5(CCC[C@H]5N)CC4)cnc23)cn1 [Compound 298, (R)-8-(3-(6-(1-methyl-1H-pyrazol-4-yl)-3,4-dihydro-1,5-naphthyridin-1(2H)-yl)-1H-pyrazolo[3,4-b]pyrazin-6-yl)-8-azaspiro[4.5]decan-1-amine]
47 | < 1000 | Cc1ccc2c(n1)CCCN2c1n[nH]c2nc(N3CCC4(CC3)CO[C@@H](C)[C@H]4N)cnc12 [Compound 292]
48 | < 1000 | C[C@@H]1CCN(c2n[nH]c3nc(N4CCC5(CC4)CO[C@@H](C)[C@H]5N)cnc23)c2ccc(-c3nnc[nH]3)nc21 [Compound 452, dihydrochloride]
49 | < 1000 | C[C@@H]1OCC2(CCN(c3cnc4c(N5CCCc6nc(N7CCNCC7)ccc65)n[nH]c4n3)CC2)[C@@H]1N [Compound 256, (3S,4S)-3-methyl-8-{3-[6-(piperazin-1-yl)-1,2,3,4-tetrahydro-1,5-naphthyridin-1-yl]-1H-pyrazolo[3,4-b]pyrazin-6-yl}-2-oxa-8-azaspiro[4.5]decan-4-amine dihydrochloride]
